From ChEMBL document CHEMBL4270546, “A novel Anti-Cancer Stem Cells compound optimized from the natural symplostatin 4 scaffold inhibits Wnt/β-catenin signaling pathway” (Eur J Med Chem, 2018) come the findings set out here.

Holding throughout (format): functional, cell-based
One assay relates to B16-F10. Description: Antiproliferative activity against mouse B16F10 cells after 48 hrs by MTT assay. The following applies: B16-F10, 48 h.
The subject of a further assay is A-375. The experiment in a line: Antiproliferative activity against human A375 cells after 48 hrs by MTT assay. The following applies: A-375, 48 h.
Another assay concerns MCF7. Description: Antiproliferative activity against human MCF7 cells after 48 hrs by MTT assay. The following applies: MCF7, 48 h.
For a further assay, the system named is MDA-MB-231. The experiment in a line: Antiproliferative activity against human MDA-MB-231 cells after 48 hrs by MTT assay. The following applies: MDA-MB-231, 48 h.
Another assay has as its system A549. The experiment in a line: Antiproliferative activity against human A549 cells after 48 hrs by MTT assay. The following applies: A549, 48 h.
The test system of the next assay is 4T1. Description: Antiproliferative activity against mouse 4T1 cells after 48 hrs by MTT assay. The following applies: 4T1, 48 h.
In another assay the test system is PANC-1. Description: Antiproliferative activity against human PANC1 cells after 48 hrs by MTT assay. The following applies: PANC-1, 48 h.
For another assay, the system named is HT-29. Description: Antiproliferative activity against human HT-29 cells.
A further assay has as its system HeLa. The experiment in a line: Antiproliferative activity against human HeLa cells.

pIC50: −log10 of the molar value.

As to `CC[C@H](C)[C@@H](C(=O)N[C@@H](CC(C)C)C(=O)N[C@@H](CC(C)C)C(=O)N[C@@H](C)/C=C/C(=O)N1C(=O)C=C(OC)[C@@H]1C)N(C)C`, the pIC50 in the assay with B16-F10 was 4.82; with A-375 it was 4.95; with MCF7 it was 4.41; in the assay with MDA-MB-231, 4.42; in the assay with A549, 4.30; with 4T1 it was 4.78. Moreover, in the assay on PANC-1, the pIC50 was 4.80.
`COC1=CC(=O)N(C(=O)/C=C/[C@H](C)NC(=O)[C@H](CC(C)C)N(C)C)[C@H]1C`: the pIC50 in the assay on B16-F10 is 4.53; in the assay with A-375, 4.94; with MCF7, 4.12; with MDA-MB-231, 4.10; with A549 it was 4.52; in the assay on 4T1, 4.72. The compound also showed a pIC50 in the assay on PANC-1 of 4.09.
Take `CC[C@H](C)[C@@H](C(=O)O[C@@H](CC(C)C)C(=O)N[C@@H](CC(C)C)C(=O)N[C@@H](C)/C=C/C(=O)N1CCOCC1)N(C)C`: the pIC50 in the assay on B16-F10, in the assay with A-375, in the assay on MCF7, with MDA-MB-231, in the assay on A549 and in the assay on 4T1 was under 4.00 each time. For the same compound, the pIC50 with PANC-1 was under 4.00.
`CC[C@H](C)[C@@H](C(=O)O[C@@H](CC(C)C)C(=O)N[C@@H](CC(C)C)C(=O)N[C@@H](C)/C=C/C(=O)N1C(=O)C=C(OC)[C@@H]1C)N(C)C` [GALLINAMIDE A]: the pIC50 in the assay with B16-F10 is 4.22; with A-375 it was 4.34; in the assay on MCF7, 4.34; in the assay on MDA-MB-231, 4.46; in the assay with A549, 4.39; in the assay on HT-29 it was 4.28. The pIC50 in the assay on HeLa was 4.92; in the assay with 4T1, 4.46; in the assay on PANC-1, 4.51.
In the case of `CC[C@H](C)[C@H](NC(=O)OCc1ccccc1)C(=O)O[C@@H](CC(C)C)C(=O)N[C@@H](CC(C)C)C(=O)N[C@@H](C)/C=C/C(=O)N1C(=O)C=C(OC)[C@@H]1C`, the pIC50 in the assay with B16-F10 was 5.37; with A-375, 5.26; with MCF7, 4.48; in the assay with MDA-MB-231, 4.81; in the assay with A549, 4.86; with 4T1, 4.83. Moreover, the pIC50 with PANC-1 is 4.85.
As for `COC1=CC(=O)N(C(=O)/C=C/[C@H](C)NC(=O)[C@H](CC(C)C)N(C)C)[C@@H]1Cc1ccccc1`, the pIC50 in the assay on B16-F10 was under 4.00; in the assay on A-375, under 4.00; in the assay on MCF7, under 4.00; with MDA-MB-231 it was 4.02; with A549 it was under 4.00; in the assay on 4T1, under 4.00. Besides, in the assay on PANC-1, the negative logarithm of the IC50 (pIC50) was 4.06.
Take `CC[C@H](C)[C@@H](C(=O)O[C@@H](CC(C)C)C(=O)N[C@@H](CC(C)C)C(=O)N[C@@H](C)/C=C/C(=O)NC(C)(C)C)N(C)C`: the pIC50 in the assay with B16-F10, in the assay on A-375, with MCF7, in the assay on MDA-MB-231, in the assay on A549 and in the assay with 4T1 was under 4.00 in each case. Further, the pIC50 in the assay with PANC-1 is 4.42.
On to `CC[C@H](C)[C@@H](C(=O)O[C@@H](CC(C)C)C(=O)N[C@@H](CC(C)C)C(=O)N[C@@H](C)/C=C/C(=O)N(CC)CC)N(C)C`, for which the pIC50 in the assay with B16-F10, in the assay with A-375, in the assay with MCF7, with MDA-MB-231, with A549 and in the assay on 4T1 was under 4.00 throughout. In the assay with PANC-1, this compound showed a pIC50 of under 4.00.
Consider `COC1=CC(=O)N(C(=O)/C=C/[C@H](C)NC(=O)[C@H](CC(C)C)N(C)C)[C@H]1Cc1ccccc1`, for which the pIC50 with B16-F10 was under 4.00; in the assay with A-375 it was under 4.00; in the assay with MCF7, under 4.00; in the assay with MDA-MB-231, 4.24; in the assay on A549 it was under 4.00; with 4T1 it was under 4.00. This compound had a pIC50 in the assay with PANC-1 of 4.17.
For the compound `CC[C@H](C)[C@@H](C(=O)O[C@@H](CC(C)C)C(=O)N[C@@H](CC(C)C)C(=O)N[C@@H](C)/C=C/C(=O)OC)N(C)C`, the pIC50 in the assay with B16-F10, in the assay on A-375, in the assay with MCF7, in the assay on MDA-MB-231, with A549 and with 4T1 was under 4.00 in each case. For the same compound, the pIC50 in the assay on PANC-1 was under 4.00.
`CC[C@H](C)[C@@H](C(=O)N[C@@H](CC(C)C)C(=O)N[C@@H](CC(C)C)C(=O)N[C@@H](C)/C=C/C(=O)N1C(=O)C=C(OC)[C@@H]1C(C)C)N(C)C`: the pIC50 was 4.21 in the assay with B16-F10; 4.45 with A-375; under 4.00 in the assay on MCF7; 4.01 with MDA-MB-231; 4.28 with A549; 4.56 in the assay with 4T1. This compound also showed a pIC50 with PANC-1 of 4.44.
Turning to `CC[C@H](C)[C@H](NC(=O)OCc1ccccc1)C(=O)N[C@@H](CC(C)C)C(=O)N[C@@H](CC(C)C)C(=O)N[C@@H](C)/C=C/C(=O)N1C(=O)C=C(OC)[C@@H]1Cc1ccccc1`, the pIC50 in the assay with B16-F10, in the assay on A-375, with MCF7, in the assay on MDA-MB-231, in the assay with A549 and in the assay with 4T1 was under 4.00 in each case. In the assay on PANC-1, this compound gave a pIC50 of under 4.00.
`CC[C@H](C)[C@H](NC(=O)OCc1ccccc1)C(=O)N[C@@H](CC(C)C)C(=O)N[C@@H](CC(C)C)C(=O)N[C@@H](C)/C=C/C(=O)N1C(=O)C=C(OC)[C@@H]1C`: the pIC50 in the assay on B16-F10 was 6.05; in the assay with A-375, 5.87; with MCF7, 5.33; in the assay with MDA-MB-231 it was 5.71; in the assay on A549, 4.82; with 4T1 it was 5.72. The compound also gave a pIC50 with PANC-1 of 6.10.
Regarding `CC[C@H](C)[C@H](NC(=O)OCc1ccccc1)C(=O)O[C@@H](CC(C)C)C(=O)N[C@@H](CC(C)C)C(=O)N[C@@H](C)/C=C/C(=O)N1C(=O)C=C(OC)[C@@H]1C(C)C`, the pIC50 in the assay on B16-F10 was 4.60; with A-375 it was 4.86; with MCF7, 4.67; in the assay on MDA-MB-231 it was 4.89; with A549 it was 4.56; in the assay on 4T1 it was 4.55. The pIC50 in the assay with PANC-1 was 4.71.
For the compound `C#CCCC(=O)N[C@H](C(=O)N[C@@H](CC(C)C)C(=O)N[C@@H](CC(C)C)C(=O)N[C@@H](C)/C=C/C(=O)N1C(=O)C=C(OC)[C@@H]1C(C)C)[C@@H](C)CC`, the pIC50 in the assay on B16-F10 is 5.15; in the assay with A-375 it was 5.00; in the assay on MCF7, 4.83; in the assay on MDA-MB-231, 4.65; in the assay on A549, 4.44; with 4T1, 4.70. Further, the negative logarithm of the IC50 (pIC50) with PANC-1 is 5.28.
Take `CC[C@H](C)[C@H](NC(=O)OCc1ccccc1)C(=O)N[C@@H](CC(C)C)C(=O)N[C@@H](CC(C)C)C(=O)N[C@@H](C)/C=C/C(=O)N1C(=O)C=C(OC)[C@@H]1c1c[nH]c2ccccc12`: the pIC50 with B16-F10, with A-375, with MCF7, in the assay on MDA-MB-231, in the assay on A549 and in the assay on 4T1 was under 4.00 each time. In the assay on PANC-1, this compound gave a pIC50 of under 4.00.
For `CC[C@H](C)[C@H](NC(=O)Nc1ccc(OC)cc1)C(=O)N[C@@H](CC(C)C)C(=O)N[C@@H](CC(C)C)C(=O)N[C@@H](C)/C=C/C(=O)N1C(=O)C=C(OC)[C@@H]1C(C)C`, the pIC50 with B16-F10 was 4.22; in the assay on A-375, 4.35; in the assay on MCF7 it was 5.00; with MDA-MB-231, 4.60; in the assay with A549 it was 4.68; in the assay on 4T1, 4.45. The compound further had a pIC50 in the assay with PANC-1 of under 4.00.
`CC[C@H](C)[C@H](NC(=O)Cc1cccc(C(F)(F)F)c1)C(=O)N[C@@H](CC(C)C)C(=O)N[C@@H](CC(C)C)C(=O)N[C@@H](C)/C=C/C(=O)N1C(=O)C=C(OC)[C@@H]1C(C)C`: the pIC50 was 4.82 in the assay on B16-F10; 4.82 with A-375; 4.95 in the assay on MCF7; 4.48 in the assay on MDA-MB-231; 4.84 in the assay on A549; 4.39 in the assay on 4T1. The compound also showed a pIC50 in the assay on PANC-1 of 4.94.
`COC1=CC(=O)N(C(=O)/C=C/[C@H](C)NC(=O)[C@H](CC(C)C)N(C)C)[C@H]1C(C)C`: the pIC50 with B16-F10 is 4.52; in the assay with A-375, 5.12; with MCF7, 4.73; in the assay with MDA-MB-231 it was 4.05; in the assay on A549, under 4.00; with 4T1 it was under 4.00. The compound further had a pIC50 in the assay with PANC-1 of 4.89.
For the compound `CC[C@H](C)[C@H](NC(=O)OCc1ccccc1)C(=O)O[C@@H](CC(C)C)C(=O)N[C@@H](CC(C)C)C(=O)N[C@@H](C)/C=C/C(=O)N1C(=O)C=C(OC)[C@@H]1Cc1ccccc1`, the pIC50 is 4.52 with B16-F10; 4.34 with A-375; under 4.00 in the assay on MCF7; under 4.00 in the assay on MDA-MB-231; 4.38 in the assay on A549; 4.10 with 4T1. In the assay with PANC-1, this compound gave a pIC50 of 4.23.
